Measurements from ChEMBL document CHEMBL4814071, “Synthesis and antibacterial study of cell-penetrating peptide conjugated trifluoroacetyl and thioacetyl lysine modified peptides” (Eur J Med Chem, 2021).
Structures can show the parent of a compound that is named as a salt. The source made the active and inactive calls. The rule behind the calls is not given here. Where a SMILES comes first, the peptide text is derived from it. The star is where a group is joined. Tfa = O=C(C(F)(F)F)*

How the values were obtained:
Staphylococcus aureus [1] = assay: Antibacterial activity against Staphylococcus aureus assessed as reduction in microbial growth after 24 hrs by microplate reader method; type: functional
Escherichia coli [2] = assay: Antibacterial activity against Escherichia coli assessed as reduction in microbial growth after 24 hrs by microplate reader method; type: functional
Pseudomonas aeruginosa [3] = assay: Antibacterial activity against Pseudomonas aeruginosa assessed as reduction in microbial growth after 24 hrs by microplate reader method; type: functional
Staphylococcus aureus [4] = assay: Synergistic antibacterial activity against Staphylococcus aureus assessed as fractional inhibitory concentration index incubated for 24 hrs in presence of streptomycin; type: functional
Lipid bilayer [5] = assay: Binding affinity to bacterial inner membrane mimic POPE/POPG (3:1) LUVs assessed as increase in intensity by one-dimensional 19F NMR based analysis
Lipid bilayer [6] = assay: Binding affinity to mammalian membrane mimic DOPC/40% cholesterol assessed as calcein leakage at 20 uM by fluorescence based assay; type: ADME
Pseudomonas aeruginosa [7] = assay: Potentiation of polymyxin B-induced antibacterial activity against Pseudomonas aeruginosa assessed as polymyxin B MIC incubated for 24 hrs by microplate reader method; type: functional
Staphylococcus aureus [8] = assay: Potentiation of streptomycin-induced antibacterial activity against Staphylococcus aureus assessed as streptomycin MIC incubated for 24 hrs by microplate reader method; type: functional
Escherichia coli [9] = assay: Potentiation of polymyxin B-induced antibacterial activity against Escherichia coli assessed as polymyxin B MIC incubated for 24 hrs by microplate reader method; type: functional
[10] = target: NAD-dependent histone deacetylase SIR2 (Saccharomyces cerevisiae S288c) (UniProt P06700); assay: Inhibition of yeast sirtuin2-mediated Ura3 transcriptional silencing at telomeric locus assessed as yeast killing at 50 uM incubated for 72 hrs in presence of FOA by absorbance based analysis
Escherichia coli [11] = assay: Antibacterial activity against Escherichia coli assessed as reduction in microbial growth after 24 hrs in presence of polymyxin B by microplate reader method; type: functional
Staphylococcus aureus [12] = assay: Antibacterial activity against Staphylococcus aureus assessed as reduction in microbial growth after 24 hrs in presence of streptomycin by microplate reader method; type: functional
Staphylococcus aureus [13] = assay: Antibiofilm activity against Staphylococcus aureus assessed as biofilm eradication incubated for 24 hrs by crystal violet staining assay; type: functional
Escherichia coli [14] = assay: Antibiofilm activity against Escherichia coli assessed as biofilm eradication incubated for 24 hrs by crystal violet staining assay; type: functional
Staphylococcus aureus [15] = assay: Antibiofilm activity against Staphylococcus aureus assessed as inhibition of biofilm formation incubated for 48 hrs by crystal violet staining assay; type: functional
Escherichia coli [16] = assay: Antibiofilm activity against Escherichia coli assessed as as inhibition of biofilm formation incubated for 48 hrs by crystal violet staining assay; type: functional
Cell membrane [17] = assay: Disruption of membrane integrity in Escherichia coli at 2 times MIC measured after 20 mins by SEM analysis
Cell membrane [18] = assay: Disruption of membrane integrity in Staphylococcus aureus at 2 times MIC measured after 20 mins by SEM analysis
Escherichia coli [19] = assay: Synergistic antibacterial activity against Escherichia coli assessed as fractional inhibitory concentration index incubated for 24 hrs in presence of Polymyxin B; type: functional
Pseudomonas aeruginosa [20] = assay: Synergistic antibacterial activity against Pseudomonas aeruginosa assessed as fractional inhibitory concentration index incubated for 24 hrs in presence of Polymyxin B; type: functional
Lipid bilayer [21] = assay: Binding affinity to bacterial inner membrane mimic DOPE/DOPG (3:1) large unilamellar vesicles assessed as calcein leakage at 20 uM by fluorescence based assay
[22] = Hemolytic activity against mouse RBC at 1000 uM measured after 1 hr by microplate reader analysis; type: cell-based, Erythrocyte; conditions: mouse red blood cells (erythrocytes), read-out: Activity
HeLa = assay: Cytotoxicity against human HeLa cells assessed as reduction in cell viability incubated for 48 hrs by MTT assay; type: cell-based
BE(2)-C = assay: Cytotoxicity against human BE(2)-C cells assessed as reduction in cell viability incubated for 48 hrs by MTT assay; type: cell-based
Staphylococcus aureus [23] = assay: Antibiofilm activity against Staphylococcus aureus assessed as biofilm eradication at 2XMBEC incubated for 12 hrs by SYTO9/PI staining based microscopic analysis; type: functional, organism-based
Escherichia coli [24] = assay: Antibiofilm activity against Escherichia coli assessed as biofilm eradication at 2XMBEC incubated for 12 hrs by SYTO9/PI staining based microscopic analysis; type: functional, organism-based
[25] = Inhibition of transcriptional machinery using Puc19-lacCONS plasmid DNA and Escherichia coli RNA polymerase-sigma70 holoenzyme at 40 uM incubated for 35 mins followed by NTP addition for 30 mins by spectrofluorometer analysis; type: functional; conditions: time 65.0 min
Pseudomonas aeruginosa [26] = assay: Antibacterial activity against Pseudomonas aeruginosa assessed as reduction in microbial growth after 24 hrs in presence of polymyxin B by microplate reader method; type: functional
Staphylococcus aureus [27] = assay: Potentiation of streptomycin-induced antibacterial activity against Staphylococcus aureus assessed as fold change in streptomycin MIC incubated for 24 hrs by microplate reader method; type: functional
Cell membrane [28] = assay: Disruption of membrane integrity in Escherichia coli at 2 times MIC by TEM analysis
Lipid bilayer [29] = assay: Binding affinity to bacterial inner membrane mimic DOPE/DOPG (3:1) large unilamellar vesicles assessed as calcein leakage at 2.5 uM by fluorescence based assay
Cell membrane [30] = assay: Disruption of membrane integrity in Staphylococcus aureus at 2 times MIC by TEM analysis
Cell membrane [31] = assay: Disruption of membrane integrity in Escherichia coli assessed as cellular leakage at 2 times MIC by TEM analysis
[32] = Inhibition of transcriptional machinery using Puc19-lacCONS plasmid DNA and Escherichia coli RNA polymerase-sigma70 holoenzyme at 10 uM incubated for 35 mins followed by NTP addition for 30 mins by spectrofluorometer analysis; type: functional; conditions: time 65.0 min

NAD-dependent histone deacetylase SIR2 (Saccharomyces cerevisiae S288c), sequence (P06700 whole entry): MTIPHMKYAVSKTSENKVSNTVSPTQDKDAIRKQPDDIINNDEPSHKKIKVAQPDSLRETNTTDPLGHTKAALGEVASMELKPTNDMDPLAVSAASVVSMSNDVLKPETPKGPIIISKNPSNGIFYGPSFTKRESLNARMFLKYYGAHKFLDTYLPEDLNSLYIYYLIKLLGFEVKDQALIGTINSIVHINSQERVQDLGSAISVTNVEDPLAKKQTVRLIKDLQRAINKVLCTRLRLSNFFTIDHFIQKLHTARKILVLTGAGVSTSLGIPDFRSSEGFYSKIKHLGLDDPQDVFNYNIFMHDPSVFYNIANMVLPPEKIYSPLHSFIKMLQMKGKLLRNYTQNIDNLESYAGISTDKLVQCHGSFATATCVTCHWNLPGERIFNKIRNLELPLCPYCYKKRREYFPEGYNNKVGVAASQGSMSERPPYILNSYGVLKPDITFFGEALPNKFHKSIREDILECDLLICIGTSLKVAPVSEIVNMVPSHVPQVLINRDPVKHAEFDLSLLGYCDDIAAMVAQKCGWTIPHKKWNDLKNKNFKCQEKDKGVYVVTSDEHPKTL

| MIC (Staphylococcus aureus [1]) | MIC (Escherichia coli [2]) | MIC (Pseudomonas aeruginosa [3]) | Activity (Lipid bilayer [5]) | Activity (Lipid bilayer [6]) | MIC (Pseudomonas aeruginosa [7]) | MIC (Staphylococcus aureus [8]) | MIC (Escherichia coli [9]) | MIC (Escherichia coli [11]) | MIC (Staphylococcus aureus [12]) | Activity (Cell membrane [17]) | Activity (Cell membrane [18]) | SMILES | fractional inhibitory concentration index (FICI) (Staphylococcus aureus [4]) | inhibition [10] | MBEC (Staphylococcus aureus [13]) | MBEC (Escherichia coli [14]) | MBIC (Staphylococcus aureus [15]) | MBIC (Escherichia coli [16]) | fractional inhibitory concentration index (FICI) (Escherichia coli [19]) | fractional inhibitory concentration index (FICI) (Pseudomonas aeruginosa [20]) | other results |
| --- | --- | --- | --- | --- | --- | --- | --- | --- | --- | --- | --- | --- | --- | --- | --- | --- | --- | --- | --- | --- | --- |
| 1.5 µM | 125 µM | > 250 µM | Active | < 20% | 0.1 µM | 0.38 µM | 0.05 µM | 7.81 µM | 0.63 µM | inactive | inactive | CC(=O)N[C@@H](CCCCN)C(=O)NCC(=O)N[C@@H](CC(C)C)C(=O)N[C@@H](CCCNC(=N)N)C(=O)N[C@@H](CCCCNC(=O)C(F)(F)F)C(=O)N[C@@H](Cc1ccccc1)C(=O)NCC(=O)N[C@@H](C)C(=O)N[C@@H](CCCCNC(=O)C(F)(F)F)C(=O)N[C@@H](CCCNC(=N)N)C(=O)N[C@@H](Cc1cnc[nH]1)C(=O)N[C@@H](CCCNC(=N)N)C(=O)N[C@@H](CS)C(N)=O (Ac-KGLRK(Tfa)FGAK(Tfa)RHRC-NH2) | 0.3 | Active | 12.5 µM | inactive | 6.3 µM | inactive | 0.19 | 0.36 | Activity (Lipid bilayer [21]): 70%; hemolysis at 1 h, 1000 µM [22]: < 5%; IC50 (HeLa): 84.4 µM; IC50 (BE(2)-C): 81.6 µM; Activity (Staphylococcus aureus [23]): Active; Activity (Escherichia coli [24]): Active; inhibition [25]: Active; MIC (Pseudomonas aeruginosa [26]): 25 µM; fold change (FC) (Staphylococcus aureus [27]): 6 |
| 0.2 µM | 1.5 µM | 25 µM | Active | < 20% | 0.05 µM | 0.38 µM | 0.1 µM | 0.63 µM | 0.05 µM | Active | Active | CC(=O)N[C@@H](Cc1ccc(O)cc1)C(=O)NCC(=O)N[C@@H](CCCNC(=N)N)C(=O)N[C@@H](CCCCN)C(=O)N[C@@H](CCCCN)C(=O)N[C@@H](CCCNC(=N)N)C(=O)N[C@@H](CCCNC(=N)N)C(=O)N[C@@H](CCC(N)=O)C(=O)N[C@@H](CCCNC(=N)N)C(=O)N[C@@H](CCCNC(=N)N)C(=O)N[C@@H](CCCNC(=N)N)C(=O)NCC(=O)NCC(=O)NCC(=O)N[C@@H](CCCCN)C(=O)NCC(=O)N[C@@H](CC(C)C)C(=O)N[C@@H](CCCNC(=N)N)C(=O)N[C@@H](CCCCNC(=O)C(F)(F)F)C(=O)N[C@@H](Cc1ccccc1)C(=O)NCC(=O)N[C@@H](C)C(=O)N[C@@H](CCCCNC(=O)C(F)(F)F)C(=O)N[C@@H](CCCNC(=N)N)C(=O)N[C@@H](Cc1cnc[nH]1)C(=O)N[C@@H](CCCNC(=N)N)C(=O)N[C@@H](CS)C(N)=O (Ac-YGRKKRRQRRRGGGKGLRK(Tfa)FGAK(Tfa)RHRC-NH2) | 0.22 | Active | 3.2 µM | 62.5 µM | 0.8 µM | 15.6 µM | 0.73 | 0.3 | Activity (Cell membrane [28]): Active; Activity (Lipid bilayer [29]): 90%; Activity (Lipid bilayer [21]): Active; hemolysis at 1 h, 1000 µM [22]: < 5%; IC50 (HeLa): 31.6 µM; IC50 (BE(2)-C): 23.4 µM; Activity (Staphylococcus aureus [23]): Active; Activity (Escherichia coli [24]): Active; Activity (Cell membrane [30]): Active; Activity (Cell membrane [31]): Active; inhibition [32]: 100%; MIC (Pseudomonas aeruginosa [26]): 6.25 µM; fold change (FC) (Staphylococcus aureus [27]): 6 |

| SMILES | MIC (Staphylococcus aureus [1]) | MIC (Escherichia coli [2]) | MIC (Pseudomonas aeruginosa [3]) | Activity (Lipid bilayer [5]) | Activity (Lipid bilayer [6]) | MIC (Pseudomonas aeruginosa [7]) | MIC (Staphylococcus aureus [8]) | MIC (Escherichia coli [9]) | MIC (Escherichia coli [11]) | MIC (Staphylococcus aureus [12]) | Activity (Cell membrane [17]) | Activity (Cell membrane [18]) | fractional inhibitory concentration index (FICI) (Staphylococcus aureus [4]) | inhibition [10] | MBEC (Staphylococcus aureus [13]) | MBEC (Escherichia coli [14]) | MBIC (Staphylococcus aureus [15]) | MBIC (Escherichia coli [16]) | fractional inhibitory concentration index (FICI) (Escherichia coli [19]) | fractional inhibitory concentration index (FICI) (Pseudomonas aeruginosa [20]) | other results |
| --- | --- | --- | --- | --- | --- | --- | --- | --- | --- | --- | --- | --- | --- | --- | --- | --- | --- | --- | --- | --- | --- |
| CC(=O)N[C@@H](Cc1ccc(O)cc1)C(=O)NCC(=O)N[C@@H](CCCNC(=N)N)C(=O)N[C@@H](CCCCN)C(=O)N[C@@H](CCCCN)C(=O)N[C@@H](CCCNC(=N)N)C(=O)N[C@@H](CCCNC(=N)N)C(=O)N[C@@H](CCC(N)=O)C(=O)N[C@@H](CCCNC(=N)N)C(=O)N[C@@H](CCCNC(=N)N)C(=O)N[C@@H](CCCNC(=N)N)C(=O)O | 1.5 µM | 50 µM | > 100 µM | – | – | – | – | – | – | – | – | – | – | – | – | – | – | – | – | – | – |
